Data taken from patent US4236015A, “1-(2-Acylaminophenyl)imidazoles” (Westwood Pharmaceuticals, Inc., priority 1979, dated 1980).

How the values were obtained:
T. agelloi = assay: Antifungal activity, agar dilution method; format: cell-based, Trichophyton ajelloi
Protocol: (§1) Various compounds of this invention display antifungal and anti-yeast activity.
(§2) In Table IX below are listed the antifungal activity of a number of compounds encompassed in the present invention. These were determined by the agar dilution method as described in Chapters 2 and 3 of Methods in Microbiology, Vol. 7B, edited by J. R. Norris and D. W. Ribbons, Academic Press, New York, 1972.

[1] = system: Trichophyton mentagrophytes; assay: Antifungal activity, agar dilution method; format: cell-based, Trichophyton mentagrophytes (ATCC No. 8757 and 9129)
Protocol: as §1, §2

rat paw edema = assay: Rat paw edema assay, oral dosing; format: in vivo; settings: 4 hours
Protocol: (§3) The anti-inflammatory activity of representative compounds of this invention was determined by the rat paw edema assay both by local administration (Table XI below) and by oral dosing (Table XII below). For the oral dosing, the procedure of C. A. Winter, E. A. Risley and G. W. Nuss, Proc. Soc. Exp. Biol. Med. 111, 544 (1962) was employed with measurement taken four hours after the drug was administered. The local administration tests were carried out similarly except the irritant (carrageenan) and the test compound were injected simultaneously at time zero. Tables XI and XII report the anti-inflammatory activity of the compounds tested as % difference in the edema or swelling as compared with the control. These Tables also give the response in many instances of more than one dose level of the same drug.

Candida albicans = assay: Antifungal activity, agar dilution method; format: cell-based, Candida albicans (ATCC No. 10231)
Protocol: as §1, §2

Candida tropicalis = assay: Antifungal activity, agar dilution method; format: cell-based
Protocol: as §1, §2

Trichophyton rubrum = assay: Antifungal activity, agar dilution method; format: cell-based, Trichophyton rubrum (ATCC No. 10218 and 14001)
Protocol: as §1, §2

[2] = system: humeral or antibody response; assay: Hemolysin test in mice; format: in vivo; settings: s.c., 50% reduction of antibody activity vs control
[3] = system: cell-mediated immune response to the antigen, Mycobacterium tuberculosis H37Ra; assay: Delayed hypersensitivity test; format: in vivo, mouse; settings: for D.H.S. (ED60): s.c., mice, 60% reduction of edema of cell-mediated immune response vs control
Protocol: The immunosuppressant activities of the compounds of this invention were determined via the hemolysin test in mice and by the delayed hypersensitivity test. The hemolysin test used is that described in Methods in Immunology, edited by D. H. Campbell et al, W. A. Benjamin, New York 1963 pages 172-175, and measures humeral or antibody response. The delayed hypersensitivity test measures the effect of a test compound on the ability of a subject mouse to mount a cell-mediated immune response to the antigen, Mycobacterium tuberculosis H37Ra. The mouse is sensitized to the antigen by subcutaneous administration in the base of the tail. The development of the delayed hypersensitivity response may be measured at any time beginning six days after sensitization but is usually done on the ninth day as follows: The right hind paw is injected with purified protein derivative (tuberculin) while the left hind paw (control) receives physiological saline. Both paw volumes are measured after twenty-four hours and significant increase in the volume of the right hind paw is taken as a measure of an effective delayed hypersensitivity response. All compounds were administered by the subcutaneous route.
The D.H.S. (ED60) mg./kg. s.c. value appearing in column 3 is an expression of the effectiveness of the drug in reducing the edema that accompanies the cell-mediated immune response. It is a measure of the number of milligrams per kilogram of body weight of the drug administered subcutaneously which is required to reduce the edema of the cell-mediated immune response by 60% when compared to the control.

[4] = system: carrageenan rat paw edema; assay: Rat paw edema assay, local administration; format: in vivo; settings: 100 mg/kg
Protocol: as §3

Row | SMILES | Parts Per Million Inhibitions, T. agelloi (T. agelloi) [Parts Per Million] | Parts Per Million Inhibitions, T. mentagrophytes [1] [Parts Per Million] | Difference from Control (rat paw edema; 100 mg/kg) [%] | Parts Per Million Inhibitions, C. albicans (Candida albicans) [Parts Per Million] | Parts Per Million Inhibitions, C. tropicalis (Candida tropicalis) [Parts Per Million] | Parts Per Million Inhibitions, T. rubrum (Trichophyton rubrum) [Parts Per Million] | HL(ED50) [2] [mg/kg] | D.H.S. (ED60) [3] [mg/kg] | Difference from Control (rat paw edema; 400 mg/kg) [%] | % Difference from Control [4] [%] | ED60 ([3]; Mus musculus, sc, read-out: D.H.S. (ED60)) [mg/kg]
1 | Cc1ccccc1-c1nc2ccccc2n2ccnc12 [Compound 132] | 100 | 100 | -76 | – | – | – | – | – | – | – | –
2 | Cc1cccc(-c2nc3ccccc3n3ccnc23)c1 [Compound 133] | 8 | 8 | -17 | 100 | 100 | 8 | 0.75 | 32 | – | – | –
3 | Cc1ccc(-c2nc3ccccc3n3ccnc23)cc1 [Compound 134] | 100 | 16 | -43 | – | – | – | 0.5 | 7.2 | – | – | –
4 | c1ccc(-c2ccc(-c3nc4ccccc4n4ccnc34)cc2)cc1 [Compound 135] | 100 | 100 | – | – | – | – | 0.033 | 0.22 | – | – | –
5 | FC(F)(F)c1cccc(-c2nc3ccccc3n3ccnc23)c1 [Compound 136] | – | 100 | -9 | – | – | – | 2.7 | > 50 | -25 | – | –
6 | CC(C)(C)c1ccc(-c2nc3ccccc3n3ccnc23)cc1 [Compound 137] | 100 | 100 | -26 | – | – | – | < 0.125 | 3.2 | – | – | –
7 | COc1cc(OC)cc(-c2nc3ccccc3n3ccnc23)c1 [Compound 139] | – | 100 | -22 | – | – | – | 3.0 | > 50 | -25 | – | –
8 | Clc1ccc(-c2nc3ccccc3n3ccnc23)cc1 [Compound 140] | – | – | -35 | – | – | < 0.5 | 0.26 | 1.15 | – | -78 | –
9 | CCCCCCCCCC(=O)Oc1ccc(-c2nc3ccccc3n3ccnc23)cc1 [Compound 165] | 100 | 100 | – | – | – | 100 | – | – | – | – | –
10 | c1ccc(Oc2ccc(-c3nc4ccccc4n4ccnc34)cc2)cc1 [Compound 219] | – | – | – | – | – | – | – | – | – | – | < 32
